# According to ChEMBL document CHEMBL3045381, “Antiproliferative activity of pentadeca-(8E, 13Z) dien-11-yn-2-one and (E)-1,8-pentadecadiene from Echinacea pallida (Nutt.) Nutt. roots” (Med Chem Res, 2013):
# Calls of active or inactive are those of the source. No cut-off for these calls is given here.
# Assays:
# Type in all cases: functional, cell-based
# [1] = test system: C6; experiment: Antiproliferative activity against Rattus norvegicus (rat) C6 cells at 5 to 75 ug/ml after 24 hr by BRdU incorporation assay
# [2] = test system: HeLa; experiment: Antiproliferative activity against Homo sapiens (human) HeLa cells at 5 to 40 ug/ml after 24 hr by BRdU incorporation assay
# [3] = test system: C6; experiment: Antiproliferative activity against Rattus norvegicus (rat) C6 cells at 5 to 100 ug/ml after 24 hr by BRdU incorporation assay
# [4] = test system: HeLa; experiment: Antiproliferative activity against Homo sapiens (human) HeLa cells at 5 to 100 ug/ml after 24 hr by BRdU incorporation assay
SMILES,Activity [1],Activity [2],Activity [3],Activity [4]
C/C=C\C#CC/C=C\CCCCCC(C)=O,Active,Active,–,–
C=CCCCCC/C=C/CCCCCC,–,–,inactive,inactive
